Laboratory results: patent US20100303790A1, “USE OF BILIVERDIN REDUCTASE (BVR) AND BVR PEPTIDE FRAGMENTS TO TREAT CORONARY DISORDERS” (UNIVERSITY OF ROCHESTER, priority 2009, published 2010)

Legend:
[1] = tested on: rat neonatal cardiomyocytes; assay: BVR, HO-2 and HO-1 mRNA in isoproterenol-stimulated cardiomyocytes (RT-PCR); assay type: cell-based; settings: 10 μM isoproterenol
Description: Neonatal Rat Cardiomyocytes: Primary cultures of neonatal rat cardiomyocytes were prepared as described previously (Ding et al., “Functional Role of Phosphodiesterase 3 in Cardiomyocyte Apoptosis: Implication in Heart Failure,” Circulation 111:2469-2476 (2005) which is hereby incorporated by reference in its entirety). Briefly, fragmented ventricular tissue from 1-2 day old Sprague-Dawley rats was subjected to multiple rounds of enzymatic digestion with collagenase II (Worthington, Lakewood, N.J.). The cells were then collected by low speed centrifugation at 4° C. Non-myocytes were removed by two rounds of pre-plating the cells on culture dishes. The enriched cardiomyocytes were cultured in DMEM with 10% FBS and 10% horse serum. The day after cell adhesion, 10 μM cytosine 1-β-D-arabinofuranoside (Sigma, St. Louis, Mo.) was added to inhibit the growth of contaminating non-myocytes.
(§1) Quantitative RT-PCR: Total RNA was isolated using Trizol reagent (Invitrogen). The first-strand cDNA synthesis and quantitative polymerase chain reaction (RT-PCR) were performed as previously described (Tudor et al., “Biliverdin Reductase is a Transporter of Haem into the Nucleus and is Essential for Regulation of HO-1 Gene Expression by Haematin,” Biochem J 413:405-416 (2008), which is hereby incorporated by reference in its entirety). The following primers were used for PCR analysis: […]
PCR products were resolved by electrophoresis and quantified by image analysis of stained gels.
The question of whether the increased synthesis of each protein required elevated levels of BVR and HO-2 mRNA was investigated by RT-PCR. […] HO-1 protein expression was not detected throughout the whole process of isoproterenol treatment up to 96 hours.

[2] = tested on: rat heart; assay: BVR and HO-2 expression in rat heart after continuous isoproterenol infusion; assay type: in vivo; settings: 400 μg isoproterenol/kg/h, four days
Description: Western Blot Analysis: Cell lysates were prepared by homogenization in RIPA buffer (40 mM Tris-HCl, pH 7.5, 1 mM EDTA, 1 mM DTT, 0.1 mM Na3VO4, 10 μg/ml aprotinin, 5 μg/ml pepstatin, 20 μg/ml leupeptin, 1 mM bezamidine followed by centrifugation at 800×g for 10 minutes at 4° C. (Ding et al., “Functional Role of Phosphodiesterase 3 in Cardiomyocyte Apoptosis: Implication in Heart Failure,” Circulation 111:2469-2476 (2005), which is hereby incorporated by reference in its entirety). Supernatant proteins were resolved by SDS-PAGE and transferred to nitrocellulose. Western blots were examined using antibodies against β-actin (Cell Signaling), BVR (Huang et al., “Detection of 10 Variants of Biliverdin Reductase in Rat Liver by Two-Dimensional Gel Electrophoresis,” J Biol Chem 264:7844-7849 (1989), which is hereby incorporated by reference in its entirety), HO-1, HO-2 (Panahian et al., “Site of Injury-Directed Induction of Heme Oxygenase-1 and -2 in Experimental Spinal Cord Injury Differential Functions in Neuronal Defense Mechanisms?” J Neurochem 76:539-554 (2001), which is hereby incorporated by reference in its entirety), and cleaved caspase-3 (Cell Signaling, Beverly Mass.). The secondary antibody was horseradish peroxidase-conjugated goat anti-rabbit IgG (1:2,000, Bio-Rad).
as §1
Implanting ISO Miniosmotic Pump: Miniosmotic pumps (Alzet model 2001, Durect Co., Cupertino, Calif.) were filled under sterile conditions with ISO dissolved in 0.001 N HCl, primed in sterile saline at 37° C. overnight, and aseptically implanted subcutaneously under halothane anesthesia. The ISO concentration was calculated to allow the pumps to deliver the drug at an infusion rate of 400 μg ISO base/kg/h, essentially as described by (Hayes et al., “Effects of Prolonged Isoproterenol Infusion on Cardiac and Vascular Responses to Adrenoceptor Agonists,”J Pharmacol Exp Ther 237:757-763 (1986), which is hereby incorporated by reference in its entirety).
It might be argued that the above data arose as an artifact of cell culture. To test whether those findings also apply in vivo, four rats were continuously infused with isoproterenol for four days, after which cardiac tissue was harvested for examination of BVR and HO-2 expression. […] Also, as expected from in vitro observations, there was no change in the level of HO-2 mRNA during infusion with isoproterenol (FIG. 3B), whereas the BVR mRNA was increased.

CC(C)NCC(O)c1ccc(O)c(O)c1 (centres unmarked) [isoproterenol]
HO-2 mRNA content [1]: remained unchanged
level of BVR mRNA [1]: increased
level of HO-1 mRNA [1]: transient increase
BVR mRNA in heart [2]: increased
level of HO-1 mRNA in the tissue [2]: no apparent change
level of HO-2 mRNA in heart [2]: no change
BVR protein expression in heart ([2]; vs sham): up-regulated
HO-2 protein expression in heart ([2]; vs sham): up-regulated
